Where only a bound is given, the exact number is not on record here.

The subject of the assay is A549/OPNluc cells. The assay can be described thus: WST assay for cell growth / cell viability. Format: cell-based, human. The conditions noted are these: Homo sapiens, A549, A549/OPNluc cells, 48±4 hours, WST-1; read-out: IC50 (concentration for 50% inhibition of cell growth). The text has this:
A reporter vector pOPN1-luc obtained by the insertion of a human OPN promoter sequence (−765 to 23) into the multiple cloning site of pGL-3 basic vector (Promega) expresses luciferase when transfected into animal cells. The pOPN1-luc was transfected into a human non-small cell lung cancer-derived cell line A549 together with pPUR (Clontech) that expresses a puromycin resistance gene (puromycin-N-acetyl-transferase gene), and then cells expressing luciferase which could grow a puromycin-supplemented medium were selected. The selected cells were named “A549/OPNluc cells” and used for observation of luciferase expression inhibitory effect under control of OPN promoter, as described below.
A test compound was added to a culture containing A549/OPNluc cells to observe its influence on the amount of luciferase expressed in the cells. Here, it can be considered that when the test compound has a cell cytotoxity or cell growth inhibitory effect, the total expression level of luciferase is reduced due to a reduction in the number of living cells that depends on the concentration of the test compound, and therefore the luciferase expression inhibitory effect of the test compound under control of OPN promoter cannot be properly evaluated. For this reason, WST assay for quantification of cell proliferation ability or cell viability by colorimetric measurement was firstly performed to determine IC50 (concentration for 50% inhibition of cell growth) of the test compound for cell growth. Then, luciferase activity measurement was performed to determine EC50 (concentration for 50% inhibition of luciferase expression) of the test compound for luciferase expression under control of OPN promoter.
A549/OPNluc cells were suspended in DMEM medium containing 10% fetal calf serum (FCS) and 1% penicillin/streptomycin (P/S) at 3×10^4 cells/mL to obtain a cell suspension, and then the cell suspension was dispensed into each well of a 96-well plate in an amount of 100 μL. In order to perform the assay in triplicate, wells were prepared for a control group, and 3 wells were prepared for each test compound-treated group at each concentration. After the dispensation, the 96-well plate was incubated in a CO2 incubator (at 37° C. and 5% CO2) for 24±4 hours.
The present compound was dissolved in dimethylsulfoxide (DMSO) to obtain a 50 mmol/L solution, and the compound solution was stored at −80° C. The compound solution was diluted with DMSO in 2-fold dilution series (usually, in the range of 0.31 mmol/L to 20 mmol/L) to prepare test compound solutions whose concentration varied by two fold for WST assay.
Each solution of only DMSO (control) and the diluted test compound (sample) was dispensed into each well containing the cell suspension in an amount of 0.5 μL (200-fold dilution). The solution in each well was mixed with a vortex mixer, and then the 96-well plate was incubated in a CO2 incubator (at 37° C. and 5% CO2) for 48±4 hours. Then, Premix WST-1 Reagent (TAKARA BIO INC.) was added in an amount of 10 μL to each well. The solution in each well was mixed with a vortex mixer, and then the 96-well plate was incubated at 37° C. and 5% CO2. After 60 minutes or 120 minutes, the absorbance values (450 nm) were measured with a microplate reader (Bio-Rad; Benchmark or Thermo Scientific; Varioskan Flash).
The absorbance values of the control wells and the sample wells at each concentration were input into an Excel file to determine the percentages of absorbance values of the sample wells at each concentration with to the average absorbance value of the control wells. From the determined values, a fitted curve was determined by the method of least squares to calculate IC50.
(In general: Formazan colour is commonly taken as a measure of viable cells.)
Regarding `COc1ccc(Oc2cccc(C(=O)CCNC(=O)c3ccc(O)cc3)c2N)cc1` [Compound 6, N-(3-(2-Amino-3-(4-methoxyphenoxy)phenyl)-3-oxopropyl)-4-hydroxybenzamide], the IC50 came out at 66 µM. Regarding `Nc1ccc(C(=O)NCCC(=O)c2cccc(Oc3ccc(Cl)cc3)c2N)cc1` [Compound 19, N-(3-(2-Amino-3-(4-chlorophenoxy)phenyl)-3-oxopropyl)-4-aminobenzamide], the IC50 is more than 100 µM. The figure for `COc1ccc(Oc2cccc(NC(=O)CCNC(=O)c3ccc(O)cc3)c2)cc1` [Compound 26, N-(3-(3-(4-Methoxyphenoxy)phenylamino)-3-oxopropyl)-4-hydroxybenzamide] is 86.2 µM; for `O=C(CCNC(=O)c1ccc(O)cc1)Nc1cccc(Oc2ccc(Cl)c(Cl)c2)c1` [Compound 38, N-(3-(3-(3,4-dichlorophenoxy)phenylamino)-3-oxopropyl)-4-hydroxybenzamide] it is 17.3 µM.

The record behind these values is patent publication US11040937B2, “Amide derivative” (TOHOKU UNIVERSITY, priority 2014, dated 2021).
